From patent US4542021A, “Antitumor compositions for non-injection administration” (Yamasa Shoyu Kabushiki Kaisha, priority 1978, dated 1985) come the findings set out here.

Usually LD50 stands for the dose at which mortality reaches 50%. A higher LD50 goes with lower toxicity.

Structures are written as SMILES. Structures can show the parent of a compound that is named as a salt. Where two headings read alike, the source gives them in different places.

The test system of one data set is B16 melanoma. Nature of the data set: Effectiveness against B16 melanoma (oral, 3 times a week). The data set is classed as in vivo, BDF1 mice. As to the method: The B16 melanoma cells (1×10^6 cells) were implanted to the right side-abdominal hypoderms of BDF1 mice (male, 18 to 22 g). From the 13th day after the implantation to death the compounds to be tested were administered orally 3 times a week. The compounds to be tested were dissolved in a phosphate-buffered salt solution (PBS) containing 0.5% carboxymethyl-cellulose to a suitable concentration, and given to the mice at a dose rate of 0.1 ml per 10 g of each mouse's body weight. The increases in life span (%ILS) were calculated in accordance with the same formula as described in Test Example 1.

The next data set deals with L1210 leukemia. Nature of the data set: Therapeutic test on L1210 leukemia (oral, once a day). The data set is classed as in vivo, BDF1 mice. Conditions: Mus musculus, read-out: % ILS (increase in life span); for ILS at 6.25 mg/kg/day / ILS at 12.5 mg/kg/day / ILS at 25 mg/kg/day / ILS at 50 mg/kg/day: L1210. As to the method: The L1210 leukemic cell suspension (1×10^5 cells/0.2 ml) was implanted intraperitoneally in BDF1 mice (males, 18 to 22 g, females, 16 to 20 g) (7 mice per group). From 24 hours after the implantation to the 5th day thereafter, the predetermined doses of the compounds to be tested were orally administered to the mice consecutively once a day. The compounds to be tested were dissolved or suspended in a phosphate-bufferedsalt solution (PBS) containing 0.5% carboxymethylcellulose, and given at a dose rate of 0.1 ml per 10 g of each mouse's body weight. To a control group, only the same solvent as used for the dissolution of the compounds to be tested was administered in the same way. The mean survival times (MST) for each group were calculated, and the corresponding increase in life span (%ILS) was obtained in accordance with the following formula, the results of which are shown in Table 1. [formula]

Data set [1] concerns L1210 leukemic cells. Nature of the data set: Experimental tumor proliferation model in the lymph nodes, single administration on sixth day. The data set is classed as in vivo, BDF1 mice. Conditions: ip, once on sixth day. As to the method:
(§1) L1210 leukemic cells (1×10^6 cells/0.05 ml) were implanted to the right inner-thigh hypoderms of BDF1 mice (males, 18 to 22 g). From one day after the transplantation, the compounds to be tested were administered intraperitoneally or orally to the mice once a day consecutively for 6 days. The compounds being tested were dissolved in a phosphate-buffered salt solution (PBS) containing 0.5% carboxymethylcellulose to a suitable concentration, and administered to the mice at a dose rate of 0.1 ml per 10 g of each mouse's body weight. The increases in life span (%ILS) were calculated similarly as in Test Example 1.
Furthermore, in a similar manner, each of the test compounds was administered only once on the sixth day after implantation.

Data set [2] has as its system L1210 leukemic cells. Nature of the data set: Experimental tumor proliferation model in the lymph nodes, once a day for 6 days. The format is in vivo, BDF1 mice. Conditions: ip. As to the method: as §1
Data set [3] in a line: Acute toxicity test, oral (Test Example 5). More on the design: species or system ICR-JCL mice. Particulars: mouse, in vivo, neutralized ester, male mice, 14th day. As to the method:
An ara-CMP ester was neutralized and dissolved in saline containing 0.5% of carboxymethylcellulose, and the resulting solution was orally administered to ICR-JCL mice (males, 24 to 26 g) in a dose of 0.2 ml per 10 g of each mouse's body weight.

Setting [4] is: L1210, 720 h, oral, 100 mg/kg/day, > means some mice survived the test period (30 days).
Setting [5] is: L1210, 720 h, oral, 200 mg/kg/day, > means some mice survived the test period (30 days).
Setting [6] is: L1210, 720 h, oral, 400 mg/kg/day, > means some mice survived the test period (30 days).

On to `O=c1[nH]cc(F)c(=O)[nH]1` [5-fluorouracil], for which the “Increase in life span (% ILS)” value in the data set on B16 melanoma (25 mg/kg) is 0%; with B16 melanoma (50 mg/kg, * level of significance at 0.05% or lower), 14%; in the data set with B16 melanoma (100 mg/kg) it was -11%. For the same molecule, the “Mean survival time (MST ± SE)” value in the data set on B16 melanoma (25 mg/kg) was 22.0 ± 1.45; in the data set with B16 melanoma (50 mg/kg), 25.0 ± 2.26; in the data set on B16 melanoma (100 mg/kg), 19.6 ± 0.98.

On to `CCCCCCCCCCCCCCCCCOP(=O)(O)OC[C@H]1O[C@@H](n2ccc(N)nc2=O)[C@@H](O)[C@@H]1O` [C17-ara-CMP ester, ara-CMP-heptadecyl ester], for which, in the data set on L1210 leukemia (setting [4]), the ILS at 100 mg/kg/day worked out at 123%. Further, the ILS at 200 mg/kg/day in the data set on L1210 leukemia (setting [5]) is > 154%. For the same molecule, the ILS at 400 mg/kg/day with L1210 leukemia (setting [6]) is -15%. In the data set with L1210 leukemia (oral), the ILS at 6.25 mg/kg/day was determined as 11%, the ILS at 12.5 mg/kg/day was 32%, the ILS at 25 mg/kg/day is 52% and the ILS at 50 mg/kg/day was 87%.

For `CCCCCCCCCCCCCCCCCCCCCCCOP(=O)(O)OC[C@H]1O[C@@H](n2ccc(N)nc2=O)[C@@H](O)[C@@H]1O` [C23-ara-CMP ester, ara-CMP-tricosyl ester], the ILS at 100 mg/kg/day with L1210 leukemia (setting [4]) worked out at 81%. In the data set on L1210 leukemia (setting [5]), the ILS at 200 mg/kg/day turned out to be 110%. Besides, in the data set on L1210 leukemia (setting [6]), the ILS at 400 mg/kg/day was 128%. For the same molecule, in the data set with L1210 leukemia (oral), the ILS at 12.5 mg/kg/day worked out at 29%, the ILS at 25 mg/kg/day is 51% and the ILS at 50 mg/kg/day amounted to 65%.

For the molecule `CCCCCCCCCCOP(=O)(O)OC[C@H]1O[C@@H](n2ccc(N)nc2=O)[C@@H](O)[C@@H]1O` [ara-CMP decyl ester, reference compound], in the data set with L1210 leukemia (setting [4]), the ILS at 100 mg/kg/day is 8%. For the same molecule, the ILS at 200 mg/kg/day with L1210 leukemia (setting [5]) amounted to 36%. The ILS at 400 mg/kg/day in the data set with L1210 leukemia (setting [6]) amounted to 39%. Also, in the data set with L1210 leukemia (oral), the ILS at 25 mg/kg/day came out at 0% and the ILS at 50 mg/kg/day came to 4%.

For `Nc1ccn([C@@H]2O[C@H](CO)[C@@H](O)[C@@H]2O)c(=O)n1` [ara-C (hydrochloride), 1-β-D-arabinofuranosyl cytosine, reference compound], the “Increase in life span (% ILS)” value in the data set with B16 melanoma (100 mg/kg) was 22%; with B16 melanoma (200 mg/kg), -5%; in the data set with B16 melanoma (400 mg/kg), 1%; in the data set with L1210 leukemic cells [1] (250 mg/kg), 36%; in the data set on L1210 leukemic cells [1] (500 mg/kg) it was 49%; in the data set with L1210 leukemic cells [2] (50 mg/kg/day) it was 101%. Moreover, the “Increase in life span (% ILS)” value with L1210 leukemic cells [2] (100 mg/kg/day) is listed as 110%. Further, the “Mean survival time (MST ± SE)” value is reported as 26.8 ± 1.50 in the data set with B16 melanoma (100 mg/kg); 21.0 ± 1.76 with B16 melanoma (200 mg/kg); 22.2 ± 2.82 with B16 melanoma (400 mg/kg); 9.9 ± 0.13 with L1210 leukemic cells [1] (250 mg/kg); 10.9 ± 0.23 with L1210 leukemic cells [1] (500 mg/kg); 13.9 ± 0.59 in the data set on L1210 leukemic cells [2] (50 mg/kg/day). In addition, the “Mean survival time (MST ± SE)” value in the data set on L1210 leukemic cells [2] (100 mg/kg/day) was determined as 14.5 ± 0.62. The ILS at 100 mg/kg/day with L1210 leukemia (setting [4]) came to 22%. For the same molecule, the ILS at 200 mg/kg/day in the data set on L1210 leukemia (setting [5]) was found to be 34%. For the same molecule, in the data set on L1210 leukemia (setting [6]), the ILS at 400 mg/kg/day was 67%.

For `CCCCCCCCCCCCCCCCCCCCCCCCCCOP(=O)(O)OC[C@H]1O[C@@H](n2ccc(N)nc2=O)[C@@H](O)[C@@H]1O` [ara-CMP hexacosyl ester, reference compound], the ILS at 100 mg/kg/day with L1210 leukemia (setting [4]) turned out to be 27%. In addition, the ILS at 200 mg/kg/day with L1210 leukemia (setting [5]) amounted to 52%. Besides, the ILS at 400 mg/kg/day in the data set with L1210 leukemia (setting [6]) is 86%. Moreover, in the data set with L1210 leukemia (oral), the ILS at 25 mg/kg/day was found to be 14% and the ILS at 50 mg/kg/day came to 23%.

Take `Nc1ccn([C@@H]2O[C@H](COP(=O)(O)O)[C@@H](O)[C@@H]2O)c(=O)n1` [ara-CMP, arabinofuranosylcytosine-5'-phosphate, reference compound]: the ILS at 100 mg/kg/day with L1210 leukemia (setting [4]) turned out to be 21%. The ILS at 200 mg/kg/day in the data set on L1210 leukemia (setting [5]) turned out to be 57%. The ILS at 400 mg/kg/day with L1210 leukemia (setting [6]) is 73%. Further, the ILS at 50 mg/kg/day with L1210 leukemia (oral) was determined as 8%.

For `CCCCCCCC/C=C\CCCCCCCCOP(=O)(O)OC[C@H]1O[C@@H](n2ccc(N)nc2=O)[C@@H](O)[C@@H]1O` [C18-1-ara-CMP ester, ara-CMP-oleyl ester], the LD50 at 336 h in data set [3] worked out at 3750 mg/kg. In addition, in the data set with L1210 leukemia (setting [4]), the ILS at 100 mg/kg/day stood at 109%. Besides, the ILS at 200 mg/kg/day with L1210 leukemia (setting [5]) came out at 120%. The ILS at 400 mg/kg/day in the data set on L1210 leukemia (setting [6]) was > 159%. Besides, in the data set with L1210 leukemia (oral), the ILS at 6.25 mg/kg/day is 20%, the ILS at 12.5 mg/kg/day is 39%, the ILS at 25 mg/kg/day came to 54% and the ILS at 50 mg/kg/day was found to be 81%.

The molecule `CCCCCCCCCCCCCCCCOP(=O)(O)OC[C@H]1O[C@@H](n2ccc(N)nc2=O)[C@@H](O)[C@@H]1O` [C16-ara-CMP ester, ara-CMP-cetyl ester] yielded an LD50 at 336 h in data set [3] of 2190 mg/kg. Also, the ILS at 100 mg/kg/day with L1210 leukemia (setting [4]) amounted to 88%. Further, in the data set on L1210 leukemia (setting [5]), the ILS at 200 mg/kg/day is 137%. In addition, in the data set with L1210 leukemia (setting [6]), the ILS at 400 mg/kg/day is > 227%. In the data set on L1210 leukemia (oral), the ILS at 12.5 mg/kg/day turned out to be 19%, the ILS at 25 mg/kg/day was 30% and the ILS at 50 mg/kg/day was 73%.

The molecule `CCCCCCCCCCCCCCCCCCCCOP(=O)(O)OC[C@H]1O[C@@H](n2ccc(N)nc2=O)[C@@H](O)[C@@H]1O` [C20-ara-CMP ester, ara-CMP-eicosyl ester] came in with an LD50 at 336 h in data set [3] of 2720 mg/kg. In the data set with L1210 leukemia (setting [4]), the ILS at 100 mg/kg/day is 126%. Also, the ILS at 200 mg/kg/day in the data set on L1210 leukemia (setting [5]) is > 199%. In the data set on L1210 leukemia (oral), the ILS at 6.25 mg/kg/day amounted to 19%, the ILS at 12.5 mg/kg/day was determined as 39%, the ILS at 25 mg/kg/day worked out at 60% and the ILS at 50 mg/kg/day amounted to 90%.

Take `CCCCCCCCCCCCCCOP(=O)(O)OC[C@H]1O[C@@H](n2ccc(N)nc2=O)[C@@H](O)[C@@H]1O` [C14-ara-CMP ester, ara-CMP-tetradecyl ester]: the ILS at 100 mg/kg/day in the data set on L1210 leukemia (setting [4]) was 88%. In addition, the ILS at 200 mg/kg/day in the data set with L1210 leukemia (setting [5]) is 105%. Further, the ILS at 400 mg/kg/day in the data set on L1210 leukemia (setting [6]) came out at 134%. For the same molecule, in the data set on L1210 leukemia (oral), the ILS at 50 mg/kg/day was found to be 62%.

As to `CCCCCCCCCCCOP(=O)(O)OC[C@H]1O[C@@H](n2ccc(N)nc2=O)[C@@H](O)[C@@H]1O` [ara-CMP undecyl ester, reference compound], the ILS at 100 mg/kg/day in the data set on L1210 leukemia (setting [4]) turned out to be 31%. Moreover, the ILS at 200 mg/kg/day in the data set on L1210 leukemia (setting [5]) turned out to be 78%. In the data set with L1210 leukemia (oral), the ILS at 25 mg/kg/day was determined as 12% and the ILS at 50 mg/kg/day is 27%.

Turning to `CCCCCCCCCCCCCCCOP(=O)(O)OC[C@H]1O[C@@H](n2ccc(N)nc2=O)[C@@H](O)[C@@H]1O` [C15-ara-CMP ester, ara-CMP-pentadecyl ester], in the data set on L1210 leukemia (setting [4]), the ILS at 100 mg/kg/day was found to be 95%. Also, the ILS at 200 mg/kg/day with L1210 leukemia (setting [5]) stood at 135%. Further, the ILS at 50 mg/kg/day with L1210 leukemia (oral) is 70%.

For `COP(=O)(O)OC[C@H]1O[C@@H](n2ccc(N)nc2=O)[C@@H](O)[C@@H]1O` [ara-CMP methyl ester, reference compound], in the data set on L1210 leukemia (L1210, po, 720 h), the ILS at 100 mg/kg/day was 13%, the ILS at 200 mg/kg/day came out at 48% and the ILS at 400 mg/kg/day was 65%.
